Results: PubChem BioAssay AID2060612 (Molecular Pharmacology Branch, DTP, NCI, 2025)

Test system: 565232-114-T-J1-PDC complex spheroid viability
Assay: Anticancer human tumor 565232-114-T-J1-PDC patient-derived bladder carcinoma cell line growth inhibition [CLK]
Conditions: for viability, T/C: stronger effect = lower value; active = viability on the fitted dose curve at most 10% of control; inactive = the rest
Method in brief: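 Patient-derived tumor cells grown as complex spheroids with HUVEC endothelial cells and mesenchymal stem cells, treated with drug combinations. Concentrations descend in half-log steps from near clinical Cmax, or from 10 microM if Cmax unknown.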

[1] = curve of first compound, second compound 0.0316 µM
[2] = curve of first compound, second compound 0.1 µM
[3] = curve of first compound, second compound 0.316 µM
[4] = curve of first compound, second compound 1 µM
[5] = curve of first compound, second compound 3.16 µM
[6] = curve of first compound, second compound 10 µM
[7] = second compound 0.0316 µM, first compound 0.00949 µM
[8] = second compound 0.0316 µM, first compound 0.03 µM
[9] = second compound 0.0316 µM, first compound 0.0949 µM
[10] = second compound 0.0316 µM, first compound 0.3 µM
[11] = second compound 0.1 µM, first compound 0.00949 µM
[12] = second compound 0.1 µM, first compound 0.03 µM
[13] = second compound 0.1 µM, first compound 0.0949 µM
[14] = second compound 0.1 µM, first compound 0.3 µM
[15] = second compound 0.316 µM, first compound 0.00949 µM
[16] = second compound 0.316 µM, first compound 0.03 µM
[17] = second compound 0.316 µM, first compound 0.0949 µM
[18] = second compound 0.316 µM, first compound 0.3 µM
[19] = second compound 1 µM, first compound 0.00949 µM
[20] = second compound 1 µM, first compound 0.03 µM
[21] = second compound 1 µM, first compound 0.0949 µM
[22] = second compound 1 µM, first compound 0.3 µM
[23] = second compound 3.16 µM, first compound 0.00949 µM
[24] = second compound 3.16 µM, first compound 0.03 µM
[25] = second compound 3.16 µM, first compound 0.0949 µM
[26] = second compound 3.16 µM, first compound 0.3 µM
[27] = second compound 10 µM, first compound 0.00949 µM
[28] = second compound 10 µM, first compound 0.03 µM
[29] = second compound 10 µM, first compound 0.0949 µM
[30] = second compound 10 µM, first compound 0.3 µM
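Note: spheroids exposed to compounds for 7 days before readout.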
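Throughout, for viability, T/C: 100% = DMSO vehicle wells with luminescence normalized to vehicle control.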

CC(C)CC(NC(=O)C(Cc1ccccc1)NC(=O)c1cnccn1)B(O)O (stereo not given) + CNC(=O)c1ccc(Nc2nc(OC3CCCC3)c3c(-c4ccc5nc(C)oc5c4)c[nH]c3n2)c(OC)c1
< 0.949 nM: IC50 [3] | IC50 [4] | IC50 [5] | IC50 [6]
1.01 nM: IC50 [2]
4.66 nM: IC50 [1]
active: viability, T/C [7] 1.47% | viability, T/C [8] 0.95% | viability, T/C [9] 0.67% | viability, T/C [10] 1.42% | viability, T/C [11] 1.02% | viability, T/C [12] 0.74% | viability, T/C [13] 0.79% | viability, T/C [14] 0.53% | viability, T/C [15] 0.97% | viability, T/C [16] 0.75% | viability, T/C [17] 3.5% | viability, T/C [18] 0.65% | viability, T/C [19] 0.93% | viability, T/C [20] 0.66% | viability, T/C [21] 0.67% | viability, T/C [22] 1.42% | viability, T/C (second compound 3.16 µM, first compound 0.003 µM) 12.3% | viability, T/C [23] 0.72% | viability, T/C [24] 1.66% | viability, T/C [25] 0.65% | viability, T/C [26] 1.37% | viability, T/C (second compound 10 µM, first compound 0.003 µM) 10.6% | viability, T/C [27] 1.82% | viability, T/C [28] 0.61% | viability, T/C [29] 0.51% | viability, T/C [30] 1.99%
inactive: viability, T/C (second compound 0.0316 µM, first compound 0.000949 µM) 81% | viability, T/C (second compound 0.0316 µM, first compound 0.003 µM) 80.1% | viability, T/C (second compound 0.1 µM, first compound 0.000949 µM) 50.7% | viability, T/C (second compound 0.1 µM, first compound 0.003 µM) 42.4% | viability, T/C (second compound 0.316 µM, first compound 0.000949 µM) 31.1% | viability, T/C (second compound 0.316 µM, first compound 0.003 µM) 24.6% | viability, T/C (second compound 1 µM, first compound 0.000949 µM) 22.1% | viability, T/C (second compound 1 µM, first compound 0.003 µM) 23.1% | viability, T/C (second compound 3.16 µM, first compound 0.000949 µM) 19.6% | viability, T/C (second compound 10 µM, first compound 0.000949 µM) 19.5%

NC(=O)C(=Cn1cnc(-c2cc(C(F)(F)F)cc(C(F)(F)F)c2)n1)c1cncnc1 + CNC(=O)c1ccc(Nc2nc(OC3CCCC3)c3c(-c4ccc5nc(C)oc5c4)c[nH]c3n2)c(OC)c1
< 9.49 nM: IC50 [2] | IC50 [3] | IC50 [4] | IC50 [5] | IC50 [6]
inactive: viability, T/C [7] 105% | viability, T/C [8] 103% | viability, T/C [9] 124% | viability, T/C [10] 35.5% | viability, T/C [11] 44.5% | viability, T/C [12] 42.2% | viability, T/C [13] 28.9% | viability, T/C [14] 10.7% | viability, T/C [15] 29.7% | viability, T/C [16] 29.7% | viability, T/C [17] 27.1% | viability, T/C [18] 8.97% | viability, T/C [19] 21.2% | viability, T/C [20] 24% | viability, T/C [21] 19.4% | viability, T/C [23] 16.4% | viability, T/C [24] 17.2% | viability, T/C [25] 13.8% | viability, T/C [27] 16.3% | viability, T/C [28] 16.8% | viability, T/C [29] 11.7%
active: viability, T/C (second compound 0.0316 µM, first compound 0.949 µM) 1.65% | viability, T/C (second compound 0.0316 µM, first compound 3 µM) 0.39% | viability, T/C (second compound 0.1 µM, first compound 0.949 µM) 1% | viability, T/C (second compound 0.1 µM, first compound 3 µM) 0.65% | viability, T/C (second compound 0.316 µM, first compound 0.949 µM) 1.36% | viability, T/C (second compound 0.316 µM, first compound 3 µM) 1.61% | viability, T/C [22] 5.67% | viability, T/C (second compound 1 µM, first compound 0.949 µM) 0.48% | viability, T/C (second compound 1 µM, first compound 3 µM) 1.21% | viability, T/C [26] 4.75% | viability, T/C (second compound 3.16 µM, first compound 0.949 µM) 1.02% | viability, T/C (second compound 3.16 µM, first compound 3 µM) 0.26% | viability, T/C [30] 4.97% | viability, T/C (second compound 10 µM, first compound 0.949 µM) 0.49% | viability, T/C (second compound 10 µM, first compound 3 µM) 0.34%
240 nM: IC50 [1]

C=C(F)C(=O)N1CCN(c2nc(OCC3CCCN3C)nc3c2CCN(c2cccc4cccc(Cl)c24)C3)CC1CC#N (stereo not given)
5680 nM: IC50 (curve of compound)
inactive: viability, T/C (compound 0.0316 µM) 103% | viability, T/C (compound 0.1 µM) 103% | viability, T/C (compound 0.316 µM) 88.9% | viability, T/C (compound 1 µM) 109% | viability, T/C (compound 3.16 µM) 105%
active: viability, T/C (compound 10 µM) 0.24%

COc1cccc2c1C(=O)c1c(O)c3c(c(O)c1C2=O)CC(O)(C(=O)CO)CC3OC1CC(N)C(O)C(C)O1 (stereo not given) + CNC(=O)c1ccc(Nc2nc(OC3CCCC3)c3c(-c4ccc5nc(C)oc5c4)c[nH]c3n2)c(OC)c1
inactive: viability, T/C (second compound 0.0316 µM, first compound 0.0316 µM) 96.7% | viability, T/C (second compound 0.0316 µM, first compound 0.1 µM) 55.5% | viability, T/C (second compound 0.1 µM, first compound 0.0316 µM) 44.4% | viability, T/C (second compound 0.1 µM, first compound 0.1 µM) 22.9% | viability, T/C (second compound 0.316 µM, first compound 0.0316 µM) 21.8% | viability, T/C (second compound 0.316 µM, first compound 0.1 µM) 18.6% | viability, T/C (second compound 1 µM, first compound 0.0316 µM) 15.9% | viability, T/C (second compound 3.16 µM, first compound 0.0316 µM) 12.7% | viability, T/C (second compound 10 µM, first compound 0.0316 µM) 13.7%
active: viability, T/C (second compound 0.0316 µM, first compound 0.316 µM) 10% | viability, T/C (second compound 0.0316 µM, first compound 1 µM) 0.25% | viability, T/C (second compound 0.0316 µM, first compound 3.16 µM) 0.24% | viability, T/C (second compound 0.0316 µM, first compound 10 µM) 0.28% | viability, T/C (second compound 0.1 µM, first compound 0.316 µM) 7.66% | viability, T/C (second compound 0.1 µM, first compound 1 µM) 0.28% | viability, T/C (second compound 0.1 µM, first compound 3.16 µM) 0.22% | viability, T/C (second compound 0.1 µM, first compound 10 µM) 0.23% | viability, T/C (second compound 0.316 µM, first compound 0.316 µM) 5.6% | viability, T/C (second compound 0.316 µM, first compound 1 µM) 0.86% | viability, T/C (second compound 0.316 µM, first compound 3.16 µM) 0.19% | viability, T/C (second compound 0.316 µM, first compound 10 µM) 1.3% | viability, T/C (second compound 1 µM, first compound 0.1 µM) 12.4% | viability, T/C (second compound 1 µM, first compound 0.316 µM) 3.59% | viability, T/C (second compound 1 µM, first compound 1 µM) 0.42% | viability, T/C (second compound 1 µM, first compound 3.16 µM) 0.14% | viability, T/C (second compound 1 µM, first compound 10 µM) 0.26% | viability, T/C (second compound 3.16 µM, first compound 0.1 µM) 9.58% | viability, T/C (second compound 3.16 µM, first compound 0.316 µM) 2.15% | viability, T/C (second compound 3.16 µM, first compound 1 µM) 0.1% | viability, T/C (second compound 3.16 µM, first compound 3.16 µM) 0.69% | viability, T/C (second compound 3.16 µM, first compound 10 µM) 0.49% | viability, T/C (second compound 10 µM, first compound 0.1 µM) 9.24% | viability, T/C (second compound 10 µM, first compound 0.316 µM) 3.57% | viability, T/C (second compound 10 µM, first compound 1 µM) 0.73% | viability, T/C (second compound 10 µM, first compound 3.16 µM) 1.86% | viability, T/C (second compound 10 µM, first compound 10 µM) 0.29%
< 31.6 nM: IC50 [2] | IC50 [3] | IC50 [4] | IC50 [5] | IC50 [6]
115 nM: IC50 [1]

CN1CCN(c2cc(C(=O)Nc3cc4cc(-c5cnn(C)c5)ccc4cn3)ccn2)CC1
212 nM [middle of 8 runs]: IC50 (compound alone, run of 07/31/2023)
inactive: viability, T/C (compound 0.0316 µM) 97.6% [middle of 9 runs] | viability, T/C (compound 0.1 µM) 106% [middle of 9 runs] | viability, T/C (compound 0.316 µM) 19.9% [middle of 9 runs]
active: viability, T/C (compound 1 µM) 1.63% [middle of 9 runs] | viability, T/C (compound 3.16 µM) 0.86% [middle of 9 runs] | viability, T/C (compound 10 µM) 0.47% [middle of 9 runs]
